Assays:
[1] = Inhibition of P-gp in human HCT116/VM46 cells assessed as potentiation of paclitaxel-induced cytotoxicity; format: cell-based; details: HCT-116/VM46
MES-SA/Dx5 = test: Inhibition of P-gp in human MES-SA/Dx5 cells assessed as potentiation of paclitaxel-induced cytotoxicity; format: cell-based
Homo sapiens [2] = organism: Homo sapiens; test: Inhibition of P-gp in human MCF7/DOX cells assessed as potentiation of doxorubicin-induced cytotoxicity by measuring fold reduction in doxorubicin IC50 at 5 uM; format: cell-based
K562/A02 [3] = test: Inhibition of P-gp in human K562/A02 cells assessed as potentiation of doxorubicin-induced cytotoxicity by measuring fold reduction in doxorubicin IC50 at 5 uM; format: cell-based
Homo sapiens [4] = organism: Homo sapiens; test: Inhibition of P-gp in human KB/VCR cells assessed as potentiation of vincristine-induced cytotoxicity by measuring fold reduction in vincristine IC50 at 5 uM; format: cell-based
Homo sapiens [5] = organism: Homo sapiens; test: Inhibition of P-gp in human KBV1 cells assessed as potentiation of vinblastine-induced cytotoxicity by measuring fold reduction in vinblastine IC50 at 50 uM; format: cell-based
[6] = target: ATP-dependent translocase ABCB1 (Homo sapiens, UniProt P08183); test: Inhibition of MDR1 in human KB-C2 cells assessed as potentiation of vincristine-induced cytotoxicity by measuring fold reduction in vincristine IC50; format: cell-based
Homo sapiens [7] = organism: Homo sapiens; test: Inhibition of P-gp in human A549/PA cells assessed as synergistic cytotoxicity with paclitaxel after 48 hrs by SRB assay; format: cell-based
K562/A02 [8] = test: Inhibition of P-gp in human K562/A02 cells assessed as potentiation of doxorubicin-induced cytotoxicity by measuring fold reduction in doxorubicin IC50; format: cell-based
Homo sapiens [9] = organism: Homo sapiens; test: Inhibition of P-gp in human lung cancer cells assessed as potentiation of doxorubicin-induced cytotoxicity by measuring fold reduction in doxorubicin IC50; format: cell-based
Homo sapiens [10] = organism: Homo sapiens; test: Inhibition of MRP in P-gp null human lung cancer cells assessed as potentiation of doxorubicin-induced cytotoxicity by measuring fold reduction in doxorubicin IC50
Homo sapiens [11] = organism: Homo sapiens; test: Inhibition of MRP in human lung cancer cells assessed as potentiation of doxorubicin-induced cytotoxicity by measuring fold reduction in doxorubicin IC50; format: cell-based
Homo sapiens [12] = organism: Homo sapiens; test: Inhibition of P-gp in human Caco2 cells assessed as potentiation of doxorubicin-induced cytotoxicity by measuring fold reduction in doxorubicin IC50; format: cell-based
Homo sapiens [13] = organism: Homo sapiens; test: Inhibition of P-gp in human CEM/DOX5000 cells assessed as potentiation of doxorubicin-induced cytotoxicity by measuring fold reduction in doxorubicin IC50; format: cell-based
[14] = Inhibition of P-gp in human Caco2 cells assessed as reduction in accumulation of Rh123 preincubated for 30 mins followed by Rh123 addition measured after 90 mins by fluorescence spectrofluorometric method; format: cell-based; details: Caco-2
[15] = Inhibition of P-gp in human Caco2 cells assessed as reduction in accumulation of calcein-AM preincubated for 30 mins followed by Rh123 addition measured after 90 mins by fluorescence spectrofluorometric method; format: cell-based; details: Caco-2
Homo sapiens [16] = organism: Homo sapiens; test: Inhibition of P-gp in human MCF7/DOX cells assessed as potentiation of doxorubicin-induced cytotoxicity by measuring doxorubicin ED50; format: cell-based
Homo sapiens [17] = organism: Homo sapiens; test: Inhibition of P-gp in human A549/DDP cells assessed as potentiation of doxorubicin-induced cytotoxicity by measuring fold reduction in doxorubicin IC50 at 5 uM; format: cell-based
Homo sapiens [18] = organism: Homo sapiens; test: Inhibition of P-gp in human K562/DOX cells assessed as potentiation of doxorubicin-induced cytotoxicity by measuring fold reduction in doxorubicin IC50 at 5 uM; format: cell-based
Homo sapiens [19] = organism: Homo sapiens; test: Inhibition of P-gp in human A549/DDP cells assessed as potentiation of […]-induced cytotoxicity by measuring fold reduction in doxorubicin IC50 at 5 uM; format: cell-based
Homo sapiens [20] = organism: Homo sapiens; test: Inhibition of P-gp in human MCF7/ADR cells assessed as potentiation of doxorubicin-induced cytotoxicity by measuring fold reduction in doxorubicin IC50 at 50 uM after 0.5 to 4 hrs by fluorometric method; format: cell-based
[21] = target: Multidrug resistance-associated protein 1 (Homo sapiens, UniProt P33527); test: Inhibition of MRP1 in human MCF7/ADR cells assessed as potentiation of mitoxantrone-induced cytotoxicity by measuring fold reduction in mitoxantrone IC50 at 50 uM after 0.5 to 4 hrs by fluorometric method; format: cell-based
Homo sapiens [22] = organism: Homo sapiens; test: Inhibition of P-gp in human SW620/DOX300 cells assessed as potentiation of doxorubicin-induced cytotoxicity by measuring fold reduction in doxorubicin IC50; format: cell-based

Sequence of Multidrug resistance-associated protein 1 (P33527 whole entry): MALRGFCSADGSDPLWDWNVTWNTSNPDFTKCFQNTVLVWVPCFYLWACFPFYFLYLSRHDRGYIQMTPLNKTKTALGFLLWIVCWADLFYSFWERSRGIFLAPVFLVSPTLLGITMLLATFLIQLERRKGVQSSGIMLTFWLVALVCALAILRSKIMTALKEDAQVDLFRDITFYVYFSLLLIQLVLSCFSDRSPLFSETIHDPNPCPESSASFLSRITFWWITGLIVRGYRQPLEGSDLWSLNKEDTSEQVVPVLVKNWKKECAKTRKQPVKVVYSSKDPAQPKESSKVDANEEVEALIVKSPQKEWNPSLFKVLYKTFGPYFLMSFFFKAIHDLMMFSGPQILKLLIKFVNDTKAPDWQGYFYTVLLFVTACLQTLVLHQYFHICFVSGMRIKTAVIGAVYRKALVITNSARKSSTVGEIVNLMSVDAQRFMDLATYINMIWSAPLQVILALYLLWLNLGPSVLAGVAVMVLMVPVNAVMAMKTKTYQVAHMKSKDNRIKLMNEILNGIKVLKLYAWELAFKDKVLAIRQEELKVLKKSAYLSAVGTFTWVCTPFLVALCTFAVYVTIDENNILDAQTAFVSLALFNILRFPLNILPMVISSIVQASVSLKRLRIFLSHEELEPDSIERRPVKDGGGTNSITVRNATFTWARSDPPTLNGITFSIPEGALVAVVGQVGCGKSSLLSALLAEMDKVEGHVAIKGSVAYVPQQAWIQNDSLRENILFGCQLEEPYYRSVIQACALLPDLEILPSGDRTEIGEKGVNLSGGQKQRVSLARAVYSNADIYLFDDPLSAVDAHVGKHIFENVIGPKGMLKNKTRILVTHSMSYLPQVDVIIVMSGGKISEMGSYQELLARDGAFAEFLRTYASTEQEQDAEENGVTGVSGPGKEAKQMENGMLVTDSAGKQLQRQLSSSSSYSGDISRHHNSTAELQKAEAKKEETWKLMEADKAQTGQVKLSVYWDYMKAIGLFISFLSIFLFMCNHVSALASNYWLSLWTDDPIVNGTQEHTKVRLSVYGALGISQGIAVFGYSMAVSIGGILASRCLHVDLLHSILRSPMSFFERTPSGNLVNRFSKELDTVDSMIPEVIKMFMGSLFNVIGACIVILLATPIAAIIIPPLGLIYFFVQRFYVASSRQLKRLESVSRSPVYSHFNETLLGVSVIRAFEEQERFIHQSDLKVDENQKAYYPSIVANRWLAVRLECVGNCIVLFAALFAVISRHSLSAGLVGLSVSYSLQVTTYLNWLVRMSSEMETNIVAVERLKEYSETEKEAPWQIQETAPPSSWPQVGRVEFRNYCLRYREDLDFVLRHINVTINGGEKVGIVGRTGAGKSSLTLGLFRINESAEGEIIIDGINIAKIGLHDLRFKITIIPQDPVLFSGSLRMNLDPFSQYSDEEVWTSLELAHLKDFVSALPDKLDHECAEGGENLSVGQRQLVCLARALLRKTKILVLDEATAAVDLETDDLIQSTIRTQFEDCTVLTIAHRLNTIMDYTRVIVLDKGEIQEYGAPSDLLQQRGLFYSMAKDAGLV
Sequence of ATP-dependent translocase ABCB1 (P08183 whole entry): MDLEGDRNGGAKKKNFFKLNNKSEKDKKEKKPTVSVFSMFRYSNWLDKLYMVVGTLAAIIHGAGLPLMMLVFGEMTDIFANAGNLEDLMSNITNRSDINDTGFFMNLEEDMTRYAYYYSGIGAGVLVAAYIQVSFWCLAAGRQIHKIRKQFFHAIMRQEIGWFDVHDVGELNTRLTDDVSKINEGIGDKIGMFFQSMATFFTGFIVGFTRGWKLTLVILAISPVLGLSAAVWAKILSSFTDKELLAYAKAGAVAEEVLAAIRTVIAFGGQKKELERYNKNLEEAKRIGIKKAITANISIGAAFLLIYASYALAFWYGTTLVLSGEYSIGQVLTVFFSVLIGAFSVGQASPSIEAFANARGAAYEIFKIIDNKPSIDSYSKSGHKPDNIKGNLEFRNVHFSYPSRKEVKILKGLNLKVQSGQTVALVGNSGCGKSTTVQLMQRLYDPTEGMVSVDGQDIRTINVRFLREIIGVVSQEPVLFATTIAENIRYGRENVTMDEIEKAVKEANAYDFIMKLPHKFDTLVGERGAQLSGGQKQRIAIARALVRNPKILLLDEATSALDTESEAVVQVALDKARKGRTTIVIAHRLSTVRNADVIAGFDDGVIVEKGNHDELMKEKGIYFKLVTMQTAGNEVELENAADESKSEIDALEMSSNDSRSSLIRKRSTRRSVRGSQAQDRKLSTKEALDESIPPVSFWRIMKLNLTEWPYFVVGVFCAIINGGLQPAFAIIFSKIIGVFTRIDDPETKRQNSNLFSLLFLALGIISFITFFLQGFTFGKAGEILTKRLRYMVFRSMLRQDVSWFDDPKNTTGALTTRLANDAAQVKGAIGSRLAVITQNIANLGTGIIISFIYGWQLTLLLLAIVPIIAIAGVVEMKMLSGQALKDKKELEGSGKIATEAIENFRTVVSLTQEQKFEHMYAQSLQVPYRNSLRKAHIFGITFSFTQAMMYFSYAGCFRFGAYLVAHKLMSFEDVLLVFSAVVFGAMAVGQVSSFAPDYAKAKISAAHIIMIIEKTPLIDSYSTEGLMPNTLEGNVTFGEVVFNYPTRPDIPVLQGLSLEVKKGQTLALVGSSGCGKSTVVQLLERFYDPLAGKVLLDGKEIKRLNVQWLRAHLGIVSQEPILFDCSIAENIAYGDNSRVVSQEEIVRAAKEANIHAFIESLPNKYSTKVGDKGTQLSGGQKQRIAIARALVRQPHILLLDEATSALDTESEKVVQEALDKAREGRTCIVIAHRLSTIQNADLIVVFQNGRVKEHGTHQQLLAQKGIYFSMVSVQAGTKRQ

Which EC50 [1] does the source give for `COc1ccc(C2=C(c3ccc(OC)c(OC)c3)C(=O)N(CCc3cc(Br)c(OCc4ccccc4)c(OCCN4CCOCC4)c3)C2=O)cc1OC` here?
The EC50 was 0.423 µM.

Which ED50 (MES-SA/Dx5) does the source give for `COc1ccc2c(c1)C(=O)c1c(OC)c(OC)c(OC)c3ccnc-2c13` here?
The ED50 was 0.03 µg/mL.

What does the source list for `CO[C@@]1(C)N(C/C=C/c2ccccc2)C(=O)C2=C[C@@]3(C(=O)N(C)c4ccccc43)C(=O)N21`?
fold change (FC) (Homo sapiens [2]): 42; fold change (FC) (K562/A02 [3]): 16; fold change (FC) (Homo sapiens [4]): 10

For `COC1=C(C)C(=O)O/C1=C1\O[C@@]23CCCN4CCC[C@@H](O2)[C@H]4[C@H]3[C@@H]1C`, which fold change (FC) (Homo sapiens [5]) is on record?
Its fold change (FC) is 4.

For `COc1cc2c(cc1O)CCN[C@]21CS[C@@H]2c3c(OC(C)=O)c(C)c4c(c3[C@H](COC1=O)N1[C@@H]2[C@H]2c3c(cc(C)c(OC)c3O)C[C@@H]([C@@H]1O)N2C)OCO4` [TRABECTEDIN], which “fold change (FC)” value [6] is on record?
Its value is 16.

For `COc1ccc2c3c(c4cc(OC)c(OC)cc4c2c1)C[C@H]1CCCN1C3`, which CI (Homo sapiens [7]) is on record?
The CI was 0.45.

With `CCCCCC(CC(C)=O)n1cnc2c(N)ncnc21` (stereo not drawn) as the compound, how does the fold change (FC) (K562/A02 [8]) read?
Its fold change (FC) is 1.5 to 2.7.

With `CCCCCCCCC(CC(=O)CCCCCCC(=O)O)n1cnc2c(N)ncnc21` (stereo not drawn) as the compound, how does the fold change (FC) (K562/A02 [8]) read?
The fold change (FC) was 1.5 to 2.7.

For `C=CC(C)(C)[C@@]12C[C@H]3c4nc5ccccc5c(=O)n4CC(=O)N3[C@@H]1N(C(C)=O)c1ccccc12`, which fold change (FC) (Homo sapiens [9]) is on record?
The fold change (FC) was 200.

What about the fold change (FC) (Homo sapiens [10]) of the same compound?
Its fold change (FC) is 15.

What about the fold change (FC) (Homo sapiens [11]) of the same compound?
Its fold change (FC) is 66.

For `CN1Cc2c(ccc3c2OCO3)C2C(O)Cc3cc4c(cc3C21)OCO4` (stereo not drawn) [CHELIDONINE (+)], which fold change (FC) (Homo sapiens [12]) is on record?
Its fold change (FC) is 6.

What about the fold change (FC) (Homo sapiens [13]) of the same compound?
Its fold change (FC) is 3.

And the IC50 [14]?
Its IC50 is 9 µM.

What about the IC50 [15] of the same compound?
The IC50 was 11 µM.

With `CC(/C=C/C#C/C=C/C=C(\C)C(=O)N[C@@H](C)CO)=C\[C@@H](C)[C@@H](O)/C(C)=C/[C@@H](C)CCc1ccccc1` as the compound, how does the ED50 (Homo sapiens [16]) read?
The ED50 was 0.0002 µM.

With `CCCCC(CC(C)=O)n1cnc2c(N)ncnc21` (stereo not drawn) as the compound, how does the fold change (FC) (K562/A02 [8]) read?
The fold change (FC) was 1.5 to 2.7.

With `C=CC(C)(C)[C@]12c3ccccc3N(C(C)=O)[C@H]1N1C(=O)[C@@H](C)n3c(nc4ccccc4c3=O)[C@@H]1C2O` (stereo partly drawn) as the compound, how does the fold change (FC) (Homo sapiens [17]) read?
The fold change (FC) was 8.

What about the fold change (FC) (Homo sapiens [18]) of the same compound?
The fold change (FC) was 5.

What about the fold change (FC) (Homo sapiens [19]) of the same compound?
Its fold change (FC) is 8.

Which results are given for `COc1cc2c(cc1OC)-c1c(OC)c(OC)cc3c1[C@H](C2)N(C)CC3` [GLAUCINE]?
fold change (FC) (Homo sapiens [20]): 7; fold change (FC) [21]: 22; fold change (FC) (Homo sapiens [2]): 7

With `COC(=O)c1c(-c2ccc(O)cc2)c(-c2ccc(O)cc2)cn1CC(=O)c1ccc(OC)cc1` as the compound, how does the fold change (FC) (Homo sapiens [22]) read?
Its fold change (FC) is 5.

For `CN1[C@@H](CC(=O)c2ccccc2)CCC[C@H]1CC(O)c1ccccc1` (stereo partly drawn), which fold change (FC) (Homo sapiens [12]) is on record?
Its fold change (FC) is 3.5.

And the fold change (FC) (Homo sapiens [13])?
The fold change (FC) was 2.5 to 3.
